Measurements as given in patent publication US9630961B2, “Arginine methyltransferase inhibitors and uses thereof” (Epizyme, Inc., priority 2013, dated 2017).

Target: T1, PRMT6 (Homo sapiens, UniProt Q96LA8)
T1 construct: Flag-PRMT6-His; made in house; host or cells: HEK 293F cells (BacMam virus)
Experiment: PRMT6 Biochemical Assay (3H-SAM Flashplate, peptide substrate)
Settings: 30 min preincubation, room temperature
From the text: S-adenosylmethionine (SAM), S-adenosylhomocysteine (SAH), bicine, Tween20, dimethylsulfoxide (DMSO), bovine skin gelatin (BSG), sodium butyrate and Tris(2-carboxyethyl)phosphine hydrochloride solution (TCEP) were purchased from Sigma-Aldrich at the highest level of purity possible. ^3H-SAM was purchase from American Radiolabeled Chemicals with a specific activity of 80 Ci/mmol. 384-well streptavidin Flashplates were purchased from PerkinElmer.
Peptide representative of human histone H4 residues 36-50 was synthesized with an N-terminal linker-affinity tag motif and a C-terminal amide cap by 21st Century Biochemicals. The peptide was purified by high-performance liquid chromatography (HPLC) to greater than 95% purity and confirmed by liquid chromatography mass spectrometry (LC-MS). The sequence was Biot-Ahx-[…]-amide and contained a monomethylated lysine at position 44 (SEQ ID NO.:5).
Full-length human PRMT6 (NM_018137.2) transcript clone was amplified from an HEK 293 cDNA library, incorporating a flanking 5′ sequence encoding a FLAG tag ([…]) (SEQ ID NO.:6) fused directly to Ser 2 of PRMT6 and a 3′ sequence encoding a hexa His sequence (HHHHHH) fused directly to Asp 375. The amplified gene was subcloned into pFastBacMam (Viva Biotech).
Recombinant baculovirus were generated according to Bac-to-Bac kit instructions (Life Technologies). […] Infections were carried out at 37° C. for 48 hours, harvested by centrifugation, and stored at −80° C. for purification.
Column was washed with 20 mM imidazole in the same buffer and Flag-PRMT6-His was eluted with 150 mM imidazole. Pooled fractions were dialysed against buffer Ni-A and further purified by anti-flag M2 affinity chromatography. Flag-PRMT6-His was eluted with 200 ug/ml FLAG peptide in the same buffer. Pooled fractions were dialysed in 20 mM Tris, 150 mM NaCl, 10% glycerol and 5 mM β-mercaptoethanol, pH 7.8. The purity of recovered protein was 95%.
General Procedure for PRMT6 Enzyme Assays on Peptide Substrates.
The assays were all performed in a buffer consisting of 20 mM Bicine (pH=7.6), 1 mM TCEP, 0.005% BSG, and 0.002% Tween 20, prepared on the day of use. Compounds in 100% DMSO (1 ul) were spotted into a polypropylene 384-well V-bottom plates (Greiner) using a Platemate Plus outfitted with a 384-channel head (Thermo Scientific). DMSO (1 ul) was added to Columns 11, 12, 23, 24, rows A-H for the maximum signal control and 1 ul of SAH, a known product and inhibitor of PRMT6, was added to columns 11, 12, 23, 24, rows I-P for the minimum signal control. A cocktail (40 ul) containing the PRMT6 enzyme was added by Multidrop Combi (Thermo-Fisher). The compounds were allowed to incubate with PRMT6 for 30 min at room temperature, then a cocktail (10 ul) containing SAM and peptide was added to initiate the reaction (final volume=51 ul). The final concentrations of the components were as follows: PRMT6 was 1 nM, ^3H-SAM was 200 nM, non-radiolabeled SAM was 250 nM, peptide was 75 nM, SAH in the minimum signal control wells was 1 mM, and the DMSO concentration was 2%. The assays were stopped by the addition of non-radiolabeled SAM (10 ul) to a final concentration of 400 uM, which dilutes the ^3H-SAM to a level where its incorporation into the peptide substrate is no longer detectable. 50 ul of the reaction in the 384-well polypropylene plate was then transferred to a 384-well Flashplate and the biotinylated peptides were allowed to bind to the streptavidin surface for at least 1 hour before being washed once with 0.1% Tween20 in a Biotek ELx405 plate washer. The plates were then read in a PerkinElmer TopCount plate reader to measure the quantity of ^3H-labeled peptide bound to the Flashplate surface, measured as disintegrations per minute (dpm) or alternatively, referred to as counts per minute (cpm).
Where dpm=disintegrations per minute, cmpd=signal in assay well, and min and max are the respective minimum and maximum signal controls. […]

T1 sequence (Q96LA8 with tags, fused parts or gaps): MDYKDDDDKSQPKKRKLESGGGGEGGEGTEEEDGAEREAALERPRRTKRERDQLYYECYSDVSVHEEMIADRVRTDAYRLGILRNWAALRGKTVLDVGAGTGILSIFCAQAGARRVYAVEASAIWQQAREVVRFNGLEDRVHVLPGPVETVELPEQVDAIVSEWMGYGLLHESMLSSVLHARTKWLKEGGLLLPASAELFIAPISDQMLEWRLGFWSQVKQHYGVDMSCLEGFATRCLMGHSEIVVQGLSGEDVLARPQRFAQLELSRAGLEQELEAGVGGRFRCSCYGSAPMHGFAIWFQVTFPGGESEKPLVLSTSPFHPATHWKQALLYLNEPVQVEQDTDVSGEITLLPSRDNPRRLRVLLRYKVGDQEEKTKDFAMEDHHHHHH

| IC50 [nM] | SMILES |
| --- | --- |
| ≤ 100 | CC(C)Cn1cc(-c2n[nH]cc2CN(C)CCN)cn1 [Compound 23, N^1-((2′-isobutyl-3,4′-bi(1H-pyrazol)-4-yl)methyl)-N^1-methylethane-1,2-diamine] |
| ≤ 100 | CN(CCN)Cc1c[nH]nc1-c1cnn(-c2ccccc2)c1 [Compound 17] |
| ≤ 100 | CN(CCN)Cc1c[nH]nc1-c1ccc2nccn2c1 [Compound 21, N^1-((3-(imidazo[1,2-a]pyridin-6-yl)-1H-pyrazol-4-yl)methyl)-N^1-methylethane-1,2-diamine] |
| 1010 to 3000 | CN(CCN)Cc1c[nH]nc1-c1ccnn1C [Compound 15] |
| ≤ 100 | CN(CCN)Cc1c[nH]nc1-c1ccc2[nH]ncc2c1 [Compound 27, N^1-((3-(1H-indazol-5-yl)-1H-pyrazol-4-yl)methyl)-N^1-methylethane-1,2-diamine] |
| ≤ 100 | CN(CCN)Cc1c[nH]nc1-c1ccc2cnn(C)c2c1 [Compound 19, N^1-methyl-N^1-((3-(1-methyl-1H-indazol-6-yl)-1H-pyrazol-4-yl)methyl)ethane-1,2-diamine] |
| 101 to 1000 | CN(CCN)Cc1c[nH]nc1-c1cccs1 [Compound 5] |
| ≤ 100 | CN(CCN)Cc1c[nH]nc1-c1cnn(Cc2ccccc2)c1 [Compound 24, N^1-((1′-benzyl-3,4′-bi(1H-pyrazol)-4-yl)methyl)-N^1-methylethane-1,2-diamine] |
| 1010 to 3000 | CN(CCN)Cc1c[nH]nc1-c1cc[nH]n1 [Compound 14] |
| ≤ 100 | CC(C)n1cc(-c2n[nH]cc2CN(C)CCN)cn1 [Compound 22] |
| 101 to 1000 | CN(CCN)Cc1c[nH]nc1-c1cn[nH]c1 [Compound 12] |
| ≤ 100 | CN(CCN)Cc1c[nH]nc1-c1ccsc1 [Compound 3] |
| ≤ 100 | CN(CCN)Cc1c[nH]nc1-c1ccc2ncnn2c1 [Compound 20] |
| 101 to 1000 | CN(CCN)Cc1c[nH]nc1-c1cnc(C2CC2)nc1 [Compound 28] |
| ≤ 100 | CCn1cc(-c2n[nH]cc2CN(C)CCN)cn1 [Compound 16] |
| ≥ 10000 | Cc1n[nH]c(C)c1-c1n[nH]cc1CN(C)CCN [Compound 25] |
| 101 to 1000 | CN(CCN)Cc1c[nH]nc1-c1ccco1 [Compound 6] |
| 101 to 1000 | CN(CCN)Cc1c[nH]nc1-c1cncnc1 [Compound 4] |
| ≤ 100 | CN(CCN)Cc1c[nH]nc1-c1cnn(CCO)c1 [Compound 18] |
| ≤ 100 | CN(CCN)Cc1c[nH]nc1-c1ccc2scnc2c1 [Compound 9] |
| ≥ 10000 | Cc1noc(C)c1-c1n[nH]cc1CN(C)CCN [Compound 10] |
| ≤ 100 | CN(CCN)Cc1c[nH]nc1-c1cnn(C)c1 [Compound 8] |
| ≤ 100 | CN(CCN)Cc1c[nH]nc1-c1cnc2[nH]ccc2c1 [Compound 13] |
| 101 to 1000 | CN(CCN)Cc1c[nH]nc1-c1ccoc1 [Compound 7] |
| ≤ 100 | CN(CCN)Cc1c[nH]nc1-c1cccc2[nH]ncc12 [Compound 30] |
| 1010 to 3000 | CN(CCN)Cc1c[nH]nc1-c1ccc[nH]1 [Compound 29] |
| 101 to 1000 | COc1ncc(-c2n[nH]cc2CN(C)CCN)cn1 [Compound 11] |
